Laboratory results published in US20260034150A1, “CANNABIDIOL FOR USE IN TREATING OR PREVENTING RECURRENT PERICARDITIS” (CARDIOL THERAPEUTICS INC., priority 2022, published 2026).
Values joined by “and” are separate entries in the source; they are usually repeats but may differ in a detail not shown here. Equal entries are not always repeated.

Experiments:
NLRP3 inflammasome = assay: IL-1β ELISA in the in vitro model of NLRP3 inflammasome activation (LPS + ATP); type: cell-based, mouse; conditions: for attenuation of the increase in IL-1β: CBD 10 μM, LPS + ATP
Method: An experiment was performed to determine the effect of 10 μM cannabidiol on NLRP3 inflammasome activation in an in vitro model as follows. J774A.1 mouse macrophages were cultured in 96-well plates (15,000 cells/well) and divided into the following groups to which various treatments described below were administered during a period of six hours: • 1. Group 1 (CNT)—cells received nothing during the 6-hour treatment period. • 2. Group 2 (LPS)—cells received LPS (1 μg/ml) for 6 hours. • 3. Group 3 (ATP)—cells received nothing for 5.5 hours and then ATP (5 mM) for the last 30 minutes. • 4. Group 4 (LPS+ATP)—cells received LPS (1 μg/mL) for 5.5 hours and ATP (5 mM) for the last 30 minutes. • 5. […] After 6 hours, 100 μL of a sample from each well of cells was collected and loaded as a single point in a specific ELISA assay that was used to measure the amount of IL-1β secreted by the macrophages in each sample. IL-1β is an indicator of and positively correlated with NLRP3 inflammasome activation. An experiment was performed to evaluate the effect of different doses of cannabidiol (10, 1, 0.1, and 0.01 μM) using the in vitro model of Example 1A. In this experiment, J774A.1 mouse macrophages were cultured in 96-well plates (15,000 cells/well) and divided into the following groups to which various treatments described below were administered during a period of six hours: • 1. Group 1 (Control)—cells received nothing during the 6-hour treatment period. • 2. Group 2 (LPS+ATP)—cells received LPS (1 μg/mL) for 5.5 hours and ATP (5 mM) for the last 30 minutes. • 3. […] After 6 hours, 100 μL of a sample from each well of cells was collected and loaded as a single point in a specific ELISA assay that was used to measure the amount of IL-1β in each sample.

IL-6 = IL-6 ELISA in LPS-treated macrophages (in vitro model of inflammation); type: cell-based, mouse; conditions: CBD 10 μM + LPS 1 μg/mL for 6 hours; J774A.1
Method: Experiments were performed to evaluate cannabidiol's anti-inflammatory activity and mechanism of action. The secretion of IL-6 and the transcription of the NLRP3 inflammasome components, pro-IL-1β mRNA, and NLRP3 mRNA, are regulated by the NF-κβ pathway and activated by LPS. In a first experiment, J774A.1 mouse macrophages were cultured in 96-well plates (15,000 cells/well) and divided into the following groups to which various treatments described below were administered during a period of six hours: • 1. Group 1 (Control)—cells received nothing during the 6 hours treatment period. • 2. Group 2 (LPS)—cells received LPS (1 μg/ml) for 6 hours. • 3. […] After 6 hours, 100 μL of a sample from each well of cells was collected and loaded as a single point in a specific ELISA assay that was used to measure the amount of IL-6 in each sample. […] A second experiment was performed to evaluate the effect of cannabidiol on the transcription of components of the NLRP3 inflammasome, namely, pro-IL-1β mRNA and NLRP3 mRNA. In this second experiment, J774A.1 mouse macrophages were cultured in individual plates (1,000,000 cells/well) and divided into the following groups to which various treatments described below were administered during a period of six hours. • 1. Group 1 (Control)—cells received nothing during the 6 hours treatment period. • 2. […]

pro-IL-1β mRNA = assay: PCR of pro-IL-1β mRNA transcription in LPS-treated macrophages; type: cell-based, mouse; conditions: CBD 10 μM + LPS 1 μg/mL for 6 hours; J774A.1
Method: (§1) Experiments were performed to evaluate cannabidiol's anti-inflammatory activity and mechanism of action. The secretion of IL-6 and the transcription of the NLRP3 inflammasome components, pro-IL-1β mRNA, and NLRP3 mRNA, are regulated by the NF-κβ pathway and activated by LPS. After 6 hours, 100 μL of a sample from each well of cells was collected and loaded as a single point in a specific ELISA assay that was used to measure the amount of IL-6 in each sample. […] A second experiment was performed to evaluate the effect of cannabidiol on the transcription of components of the NLRP3 inflammasome, namely, pro-IL-1β mRNA and NLRP3 mRNA. In this second experiment, J774A.1 mouse macrophages were cultured in individual plates (1,000,000 cells/well) and divided into the following groups to which various treatments described below were administered during a period of six hours. • 1. Group 1 (Control)—cells received nothing during the 6 hours treatment period. • 2. Group 2 (LPS)—cells received LPS (1 μg/ml) for 6 hours. • 3. […] At the end of the six-hour treatment period, samples from each group were collected and processed using Polymerase Chain Reaction (PCR) to measure the level of transcription of pro-IL-1B mRNA and NLRP3 mRNA in the samples.

NLRP3 mRNA = assay: PCR of NLRP3 mRNA transcription in LPS-treated macrophages; type: cell-based, mouse; conditions: CBD 10 μM + LPS 1 μg/mL for 6 hours; J774A.1
Method: as §1

[1] = system: mouse model of pericarditis; assay: Mouse model of pericarditis (Zymosan A): pericardial space by transthoracic echocardiography; type: in vivo
Method: (§2) Experiments were conducted using a mouse model of pericarditis described in Mauro et al. (10), which mouse model is incorporated herein by reference for its disclosure of the mouse model.
(§3) Adult Institute of Cancer Research (IRC) mice (10 weeks of age) supplied by Harlan Laboratories (Harlan Sprague Dawley Inc.) were used and divided into the following treatment groups, with each group consisting of 4-5 mice: • 1. Group 1 (NaCl+Veh)—mice received normal saline (0.9% w/v NaCl) in the surgical procedure described below and were subsequently treated for seven days with a vehicle consisting of ethanol:Cremophor EL:water (1:1:18). • 2. Group 2 (NaCl+)—mice received normal saline (0.9% w/v NaCl) in the surgical procedure described below and were subsequently treated for seven days with cannabidiol at a dose of 10 mg/kg. The cannabidiol was dissolved in the same vehicle as the vehicle used for Group 1. • 3. Group 3 (Zym+Veh)—mice received Zymosan A in the surgical procedure described below and were subsequently treated for seven days with the same vehicle as the vehicle used for Group 1. • 4. […] The cannabidiol was dissolved in the same vehicle as the vehicle used for Group 1. • 5. […] The cannabidiol was dissolved in the same vehicle as the vehicle used for Group 1.
The mice of all four treatment groups were anesthetized, intubated orotracheally, and placed in the right lateral decubitus position. A left thoracotomy was then performed. Under direct visualization and using a 30 Gauge needle, 1 mg of Zymosan A (referred to herein also as “zymosan”) dissolved in 50 μl of sterile normal saline (0.9% w/v NaCl) was delivered into the pericardial space of the mice of Groups 3 and 4 by carefully lifting the pericardial sac with forceps until a complete distribution of the solution into the pericardium was achieved. […] All mice received analgesia for the peri-operative period.
For all groups, treatments with either cannabidiol dissolved in vehicle, or vehicle alone, were administered intraperitoneally (IP) every day for seven days with the first treatment administered approximately 30 minutes after the surgery.
On day seven, echocardiography was performed on the mice of all groups under light anesthesia using a Prospect™ T1 ultrasound imaging system (Scintica, London, Canada). In this procedure, the left ventricle in the parasternal short-axis view at the mid-ventricular level was visualized in the bi-dimensional mode (B-mode). The image was optimized for the anterior wall, and the image was zoomed in to visualize the anterior pericardial structures. After optimization of the image, amono-dimensional mode (M-mode) was acquired for optimal spatial-temporal resolution. An investigator blinded to group allocation measured the maximal pericardial space between the 2 layers of the pericardium in both M- and B-mode. The pericardial space is a one-dimensional measure of pericardial effusion.

[2] = system: mouse model of pericarditis; assay: Mouse model of pericarditis (Zymosan A): pericardial thickness by histochemistry; type: in vivo; conditions: day seven, differences not statistically significant
Method: as §2, §3
The mice of all four treatment groups were anesthetized, intubated orotracheally, and placed in the right lateral decubitus position. A left thoracotomy was then performed. […]
Following echocardiography, and on day seven, the mice were sacrificed, and their hearts were explanted and processed for pathology. […] An investigator blinded to group allocation measured the pericardial thickness with the aid of computer morphometry using Image-Pro™ Plus 6.0 software (Media Cybernetics, Silver Spring, MD).

In the case of C=C(C)[C@@H]1CCC(C)=C[C@H]1c1c(O)cc(CCCCC)cc1O [CBD, 2-[(1R,6R)-3-methyl-6-prop-1-en-2-ylcyclohex-2-en-1-yl]-5-pentylbenzene-1,3-diol], the “IL-1β concentration versus LPS+ATP group (FIG. 1A)” value (NLRP3 inflammasome; CBD 10 μM + LPS + ATP versus LPS + ATP, J774A.1) is reported as “significantly lower concentrations of IL-1β”, the “effect of different concentrations on IL-1β (FIG. 1B)” value (NLRP3 inflammasome; CBD 10, 1, 0.1 and 0.01 μM + LPS + ATP, J774A.1) is reported as “effective to attenuate the increase in IL-1β in a dose dependent fashion” and the “IL-1β with CBD alone versus Control group” value (NLRP3 inflammasome; CBD alone 10 μM, no LPS or ATP, J774A.1) is reported as “no different than the Control group”. For the same compound, the “IL-1β Concentration, CBD, Mean” value (NLRP3 inflammasome; Table 1A.1, J774A.1 macrophages, CBD 10 μM alone for 6 hours, mean) was 6 pg/mL, the “IL-1β Concentration, CBD” value (NLRP3 inflammasome; Table 1A.1, J774A.1 macrophages, CBD 10 μM alone for 6 hours, single wells) was 5.9 pg/mL and 6.1 pg/mL and the “IL-1β Concentration, CBD + LPS + ATP, Mean” value (NLRP3 inflammasome; Table 1A.1, J774A.1, CBD 10 μM + LPS 1 μg/mL 5.5 hours, ATP 5 mM last 30 minutes, mean) was 118.725 pg/mL. For the same compound, the “IL-1β Concentration, CBD” value (NLRP3 inflammasome; Table 1A.2 (repeat), J774A.1, CBD 10 μM alone, single wells) was 7.86 pg/mL and 6.35 pg/mL and 8.81 pg/mL and 9.46 pg/mL and 10.46 pg/mL and 8.97 pg/mL, the “IL-1β Concentration, LPS + ATP + CBD” value (NLRP3 inflammasome; Table 1A.3 (repeat), J774A.1, CBD 10 μM + LPS + ATP, single wells) was 10.8 pg/mL and 17 pg/mL and 11.31 pg/mL and 18.96 pg/mL and the “IL-1β Concentration, LPS + ATP + CBD, Mean” value (NLRP3 inflammasome; Table 1A.4, mean of Tables 1A.2 and 1A.3, CBD 10 μM + LPS + ATP) was 19.44 pg/mL. For the same compound, the “IL-1β Concentration, CBD, Mean” value (NLRP3 inflammasome; Table 1A.4, mean of Tables 1A.2 and 1A.3, CBD 10 μM alone) was 8.898 pg/mL, the “attenuation of the increase in IL-1β” value (NLRP3 inflammasome; calculated from Table 1A.1 means) was “over 70%” and the “attenuation of the increase in IL-1β” value (NLRP3 inflammasome; calculated from Table 1A.4 means) was “about 97.65%”. For the same compound, the “effect on LPS-induced increase in IL-6 (FIG. 1C)” value (IL-6) was “attenuated this increase completely”, the “effect on LPS-induced transcription of pro-IL-1β mRNA (FIG. 1D)” value (pro-IL-1β mRNA) was “significantly attenuated these increases” and the “effect on LPS-induced transcription of NLRP3 mRNA (FIG. 1E)” value (NLRP3 mRNA) was “significantly attenuated these increases”. For the same compound, the “effect on increase in measured pericardial space, Zym+CBD 1 mg/kg (FIG. 2)” value ([1]; Zymosan A mice, CBD 1 mg/kg IP daily for seven days) was “attenuated the increase in the measured pericardial space to the same degree as cannabidiol at a dose of 10 mg/kg”, the “Measured pericardial space, Zym + CBD, Mean” value ([1]; Zymosan A mice, CBD 10 mg/kg IP daily for seven days, day seven, mean) was 0.1177 mm and the “Measured pericardial space, Zym + CBD” value ([1]; Zymosan A mice, CBD 10 mg/kg IP daily for seven days, day seven, single mice) was 0.103 mm and 0.152 mm and 0.112 mm and 0.104 mm. The “pericardial space versus Group 1 (Saline+Veh), Zym+CBD” value ([1]; Zymosan A mice, CBD 10 mg/kg IP, differences not statistically significant) was “did not develop a pericardial space greater than that of the mice of Group 1”, the “attenuation of the increase in the measured pericardial space” value ([1]; calculated from Table 2 means, Zymosan A mice, CBD 10 mg/kg IP) was “at least 85%” and the “Measured pericardial space, Saline + CBD” value ([1]; sham (saline) mice, CBD 10 mg/kg IP daily for seven days, day seven, single mice) was 0.098 mm and 0.097 mm and 0.105 mm. The “pericardial space versus Group 1 (Saline+Veh), Saline+CBD” value ([1]; sham mice, CBD 10 mg/kg IP, differences not statistically significant) was “did not develop a pericardial space greater than that of the mice of Group 1”, the “pericardial thickness versus Group 1 (NaCl+Veh), Zym+CBD 1 mg/kg” value ([2]; Zymosan A mice, CBD 1 mg/kg IP) was “did not develop a pericardial thickness different from that of the mice of Group 1” and the “pericardial thickness versus Group 1 (NaCl+Veh), Zym+CBD 10 mg/kg (FIG. 3)” value ([2]; Zymosan A mice, CBD 10 mg/kg IP) was “did not develop a pericardial thickness different from that of the mice of Group 1”. For the same compound, the “pericardial thickness versus Group 1 (NaCl+Veh), NaCl+CBD (FIG. 3)” value ([2]; sham mice, CBD 10 mg/kg IP) was “did not develop a pericardial thickness different from that of the mice of Group 1”.
